Measurements reported in a melting point compilation (Tetko et al.; mined from patent text by program, amines drawn as free bases though some values may be those of a salt).

Compound `Cc1c(Cl)c(C(=O)O)cc([N+](=O)[O-])c1Cl` has a melting point of 152 to 154 °C. Compound `CCOC(=O)c1csc(/C=C/C(=O)c2ccc3c(c2)C2(C)C4(C)CCC(C4)C2(C)O3)c1` (stereo not given) has a melting point of 149 to 151 °C. Work on `Cc1ccc2nc(N3CC[C@H](NCCO)C3)ccc2c1NC(=O)CC1CCCCC1` yielded a melting point of 204 to 207 °C. In the case of `COc1cc(OC)nc(Sc2sccc2[N+](=O)[O-])n1`, the melting point is reported as 199 to 201 °C. `NS(=O)(=O)c1cc2c(s1)SCC(=O)N2` gave a melting point of 243 to 245 °C. Work on `CCN(CC)S(=O)(=O)c1c(Cl)c(Cl)c(Cl)c2nc(C(F)(F)F)[nH]c12` yielded a melting point of 155 to 157 °C. Work on `O=C(CN1CCC(Cc2ccc(F)cc2)CC1)Nc1ccc2cn[nH]c2c1` yielded a melting point of 135 to 137 °C. Compound `Cc1c(S(=O)(=O)C(F)(F)F)cc(-c2ccc(S(C)(=O)=O)cc2)n1-c1ccc(F)cc1` has a melting point of 162 to 164 °C. `O=c1oc2cc(O)c(O)c([N+](=O)[O-])c2c2c1CCCC2` gave a melting point of 238 to 255 °C. `O=C(O)CCCCCCc1nc2ccccc2s1` showed a melting point of 62 to 63 °C. Work on `Oc1ccc(-c2nn(-c3cc(Cl)ccc3Cl)c3cc(O)ccc23)c(O)c1` yielded a melting point of 78 to 80 °C. In the case of `COc1cccc2c1nc(C(F)F)n2-c1nc(Nc2cccnn2)nc(N2CCOCC2)n1`, the melting point is reported as 261 to 263 °C. Compound `CC(C)(C)C=C[C@H](O)c1ccc(C(F)(F)F)cc1` has a melting point of 30 to 32 °C. With `CSc1cc(C(=O)O)cc(C(F)(F)F)c1` the melting point was 135 to 140 °C. Compound `Cc1ccc(S(=O)(=O)n2ccc3c(CO)cccc32)cc1` has a melting point of 125 to 126 °C. In the case of `COC(=O)CC(O)CC(=O)C=Cc1ccc(Cl)cc1Cl` (stereo not given), the melting point is reported as 77 to 79 °C. For `COc1cc2c(Nc3ccc4cn[nH]c4c3)c(C#N)cnc2cc1OCCN1CCSCC1`, the melting point was 213 to 215 °C. Work on `CC(C)c1cc(C(=O)Nc2ccc(OCC(=O)O)cc2)oc1C(C)C` yielded a melting point of 83 to 85 °C. `CCCCCCCCOc1ccc(-c2ccc(C(=O)O[C@@H](C)C(=O)OCCCC)cc2)cc1` showed a melting point of 51 °C. Compound `COC(=O)c1cc2c(cc1OC)OCO2` has a melting point of 74 to 75 °C. For `COC(=O)c1ccc(/C=C\[C@@H]2C[C@@H](NS(=O)(=O)c3ccc(Cl)cc3)CN2)cc1`, the melting point was 189 to 190 °C. In the case of `Cc1ncc2cc(-c3ccccc3Cl)c(N)nc2n1`, the melting point is reported as 259 to 260 °C. `CNC(=C[N+](=O)[O-])NCCN1CCC(C(=O)c2ccc(F)cc2)CC1` showed a melting point of 157 to 159 °C. With `Nc1ccc(N2CCN(Cc3ccccc3)CC2)cc1` the melting point was 137 to 138 °C. In the case of `O=C(O)Cc1cc(C(=O)C=Cc2ccc(F)cc2)ccc1O`, the melting point is reported as 212 °C. Work on `Cc1nc(C)c2c(n1)N(Cc1ccc(-c3ccccc3-c3nnn[nH]3)cc1)C(=O)C2` yielded a melting point of 228 to 229 °C. With `O=C(O)c1ccc(NCc2cncc3ccccc23)cc1` the melting point was 237 to 240 °C. In the case of `COc1ccc(C(=O)C=Cc2c(O)cc(OCCBr)cc2O)cc1O`, the melting point is reported as 158 to 162 °C. In the case of `COc1ccc2c(O)n[nH]c2c1OC`, the melting point is reported as 175 °C. `Clc1ccc(Cc2cccnn2)c(Cl)c1` gave a melting point of 67 to 69 °C. In the case of `O=C(Cl)ON1C(=O)c2ccccc2C1=O`, the melting point is reported as 113 to 115 °C. Work on `CC1CC(C)CN(S(=O)(=O)c2cc(Cl)cc(C(=O)O)c2)C1` (stereo not given) yielded a melting point of 226 to 231 °C. Compound `CC(C)(C)C(=O)OCOC(=O)c1cccnc1Nc1cccc(C(F)(F)F)c1` has a melting point of 55 to 56 °C. `COc1ccccc1-n1cnc2cc(N)ccc21` gave a melting point of 48 to 50 °C. With `O=C(O)c1cn(Cc2nccs2)c2cc(N3CCN(c4ccncc4)CC3)ccc2c1=O` the melting point was 273 to 276 °C. Compound `CN1C(=O)CC(=O)N(C2CCCCC2)C1=O` has a melting point of 81 to 82 °C. In the case of `CC(C)c1nc(CC#N)n(C)c1Sc1cc(Cl)cc(Cl)c1`, the melting point is reported as 103 to 105 °C. In the case of `CC1(c2ccc([N+](=O)[O-])cc2)C(=O)Nc2cc(Cl)cc(Cl)c2C1=O` (stereo not given), the melting point is reported as 264 to 265 °C. For `CC(=O)OCCc1ccc2c(c1)C(=O)c1ccccc1CO2`, the melting point was 55 to 58 °C. With `CC1CCc2cc(C3=NNC(=O)C4CC34)ccc2NC1=O` (stereo not given) the melting point was 305 to 307 °C. `O=c1cc(CO)n(Cc2ccccc2)cc1OCc1ccccc1` gave a melting point of 146 to 147 °C. With `CCCCCC(C)C(C)c1cc(O)c2c(c1)OC(C)(C)C1=C2CCC1` (stereo not given) the melting point was 154 to 156 °C. `Cc1ccc(OCCCCCNc2cccc3c2C(=O)c2cccc4[nH]nc-3c24)cc1` showed a melting point of 122 to 125 °C. Compound `COc1cccc(OCc2cccc(OCc3ccc4ccccc4n3)c2)c1C(=O)O` has a melting point of 149 to 152 °C. In the case of `CCOC(=O)c1cc(F)cnc1NCc1ccc(OC)cc1`, the melting point is reported as 90 °C. In the case of `CN1Cc2c(c3cc(CCN4CCN(c5nsc6ccccc56)CC4)ccc3[nH]c2=O)C1`, the melting point is reported as 205 to 207 °C. In the case of `OCCc1ccc(OCC2CO2)cc1` (stereo not given), the melting point is reported as 56 to 58.5 °C. Compound `Cc1cc(F)c(N)cc1O` has a melting point of 147 °C. Work on `Cc1cc(OCc2ccccc2)ccc1C(=O)O` yielded a melting point of 126 to 129 °C. In the case of `Cn1c(-c2ccc(Br)cc2)cc2ccccc21`, the melting point is reported as 114 to 115 °C. `O=Cc1cccc([N+]([O-])=Cc2cccc([N+](=O)[O-])c2)c1` gave a melting point of 195 to 197 °C. For `COC(=O)c1ccc(NCCNC(=O)C2Cc3ccccc3N2S(=O)(=O)c2ccc(-c3cc(C(F)(F)F)ccc3Cl)cc2)cc1` (stereo not given), the melting point was 96 to 98 °C. Compound `Clc1cc2c(cc1Br)C(=C1CCNCC1)c1ncccc1CO2` has a melting point of 198 to 199 °C. Compound `Clc1ccc2[nH]cc(C3=CCC4(CC3)OCCO4)c2c1` has a melting point of 178 to 181 °C. Work on `O=C(O)c1cc2cc(C(F)(F)F)cnc2n1Cc1ccncc1` yielded a melting point of 302 to 303 °C. `CCC(O)c1cc([N+](=O)[O-])cc(Br)c1Cl` (stereo not given) showed a melting point of 110 to 113 °C. Compound `Cc1ccc(NC(=O)c2cccc(CN3C(=O)C4(COc5cc6c(cc54)CCO6)c4ccccc43)c2)c(C)c1` (stereo not given) has a melting point of 234 to 235 °C. Work on `Nc1ccc(CCCCC(=O)O)nc1` yielded a melting point of 80 to 82 °C. Work on `CN1CC2CN(C(=O)N3c4ccccc4NC(=O)c4c3c(Cl)cn4C)CC2C1` (stereo not given) yielded a melting point of over 280 °C. Work on `Cc1ccc(-c2ncc(NC(=O)OCc3ccccc3)c(=O)n2CC(=O)NC(Cc2ccccc2)C(=O)C(F)(F)F)cc1` (stereo not given) yielded a melting point of 173 to 175 °C. With `O=C(Cl)N1CCN(c2ccccc2)CC1` the melting point was 79.5 °C. With `C=C(C)CO[C@H]1[C@H](C)OC(=O)[C@@H](NC(=O)c2nccc(OC)c2OCc2ccccc2)COC(=O)[C@@H]1Cc1ccccc1` the melting point was 50 to 52 °C. In the case of `CCOc1cc(C(=O)O)cc(N)c1Cc1ccccc1`, the melting point is reported as 165 to 167 °C. With `CCOCc1nc2c(N)nc3cc(-c4cccnc4)ccc3c2n1CCCCNC(=O)c1ccc(C(OCCN(C)C)c2ccccc2)cc1` (stereo not given) the melting point was 157 to 161 °C. `O=C(Cc1ncc[nH]1)c1ccc2ccccc2c1` gave a melting point of 125 to 126 °C. For `O=C(O)/C=C/c1cc(F)c2ncc(C(=O)NCc3ccc(Cl)cc3)c(O)c2c1`, the melting point was 296 to 298 °C. `Oc1ccc(-c2nc(-c3ccc(Br)cc3)nc(-c3ccc(O)cc3O)n2)c(O)c1` gave a melting point of 222 to 224 °C. Work on `CCCCCCN(CCCCCC)C(Nc1ccc(OC)cc1OC)=C1C(=O)COC1=O` yielded a melting point of 96 to 98 °C. Work on `Cc1oc(-c2ccc(C(F)(F)F)cc2)nc1-c1ccc(-c2cc(Br)c(OCC(=O)O)c(Br)c2)cc1` yielded a melting point of 165 to 166 °C. `CC(=O)Nc1ccc(CN(C)C)c(O)c1` gave a melting point of 133 to 135 °C. For `O=C(O)c1nc2c(=O)[nH]c3cc(C(F)(F)F)ccc3n2c1CNc1ccc2c(c1)OCO2`, the melting point was over 250 °C. Work on `CON=CC1CCCN(C(=O)Oc2ccccc2)C1` (stereo not given) yielded a melting point of 40 to 41 °C. Work on `CC(=Cc1c(Cl)cc(N(C)C)cc1Cl)[N+](=O)[O-]` yielded a melting point of 105 to 110 °C. Work on `O=C1CCC(N2Cc3c(OCc4nc(CN5CCOCC5)no4)cccc3C2=O)C(=O)N1` (stereo not given) yielded a melting point of 150 to 152 °C. With `O=c1ncc(F)cn1CCO` the melting point was 134 to 136 °C. Work on `O=C(CS)N[C@@H](CS)C(=O)O` yielded a melting point of 121 °C. With `CC(C)Oc1nn(CCO)cc1C(=O)NCc1ccc(C(F)(F)F)cc1` the melting point was 107 to 108 °C. In the case of `COC(=O)c1ccc(S(C)(=O)=O)c(OS(=O)(=O)C(F)(F)F)c1Cl`, the melting point is reported as 69 °C. Compound `OCCSc1nc(-c2ccccc2)c(-c2ccccc2)s1` has a melting point of 77 to 79 °C. `COc1ccc(CCCCNC(=O)CCl)cc1OC` showed a melting point of 94 to 95 °C. Work on `Cn1c(S)nnc1C(O)(c1ccc(Cl)cc1)c1cc2c3c(c1)c(-c1cccc(Cl)c1)cc(=O)n3CO2` (stereo not given) yielded a melting point of 193 °C. Work on `COc1ccc2c(c1)-c1n[nH]c(-c3ccncc3)c1CCC2` yielded a melting point of 200 to 201 °C. Work on `Cc1oc(-c2ccccc2)nc1COc1cc(COc2ncccc2CC(=O)O)on1` yielded a melting point of 129 to 130 °C. `CN1CC(C(=O)COC(=O)C(C)(C)C)CC2c3cccc4[nH]cc(c34)CC21` (stereo not given) gave a melting point of 155 to 156 °C. Work on `CC(=O)OCC1OC(Oc2ccc(N)cc2)C(OC(C)=O)C(OC(C)=O)C1OC(C)=O` (stereo not given) yielded a melting point of 130 to 133 °C. In the case of `N=C(N)c1ccc(NC(=O)NC(=O)c2ccc(OCC(=O)O)cc2)cc1`, the melting point is reported as 285 to 288 °C. With `CC(C)(C)c1ccc(CCC(CC2CCCCC2)OC(=O)OCC(=O)O)cc1NC(=O)CC1c2ccccc2Oc2ccccc21` (stereo not given) the melting point was 143 to 145 °C. With `Oc1ccc2c(c1)OC=C(CN1CCN(C(c3ccc(F)cc3)c3ccc(F)cc3)CC1)O2` the melting point was 190 °C. `Cc1ncc2ccc(-c3cccs3)nc2n1` showed a melting point of 175 to 180 °C. Work on `CCOC(CN1C(=O)C2=C(c3ccc(Br)cc3)N(CC(OCC)OCC)C(=O)C2=C1c1ccc(Br)cc1)OCC` yielded a melting point of 198 to 201 °C. Compound `CC(C)n1nc(-c2sc(C(=O)N3CCN(C)CC3)nc2-c2ccccc2)ccc1=O` has a melting point of 155 to 156 °C. `C#CCNC(=O)c1c(I)cccc1[Si](C)(C)C` showed a melting point of 109 to 111 °C. With `Cc1ccc(C(=O)O)c(Oc2ccc3c(c2)c(C(=O)O)c(CC(=O)O)n3-c2ccc(OC(C)C)cc2)n1` the melting point was 179 °C. For `CCOC(=O)CCc1c(OCCCCCCc2ccc(OC)cc2)ccc2c(=O)c3cc(C(=O)OC)ccc3oc12`, the melting point was 108 to 109 °C. Work on `O=C(Cc1ccccc1)N1C[C@@H]2SCCC(c3ccccc3)(c3ccccc3)[C@@H]2C1` (racemic) yielded a melting point of 210 °C. Work on `CC(=O)c1ccc(S(=O)(=O)NCc2ccccc2-c2ccccc2C(=O)NCCc2ccccc2)cc1` yielded a melting point of 145 °C. `O=C1c2ccccc2C(=O)N1OCC1COCOC1` showed a melting point of 98 to 106 °C. Work on `CCOC(=O)c1cccc2c1c(C(=O)C(=O)NC1=CC(=O)OC1)cn2Cc1ccc(Cl)cc1` yielded a melting point of 242 to 244 °C. For `COc1ccc(/C=C/C2=CCN(Cc3c[nH]c4ncccc34)CC2)cc1`, the melting point was 201 to 204 °C. For `COC(=O)CN(C(=O)c1ccc(Cl)cc1)c1ccccc1CCC#N`, the melting point was 127 to 128 °C.
